{
  "source": "paper PMC7928264",
  "about": "(Journal of pharmacy & pharmaceutical sciences : a …, 2014)",
  "key": {"OCTs": {"test_system": "OCTs", "details": "for Inhibition of tacrine uptake vs untreated control: 30 min pre-incubation, 1 μM tacrine 5 min, SCHs day 1"}, "OATPs": {"test_system": "OATPs", "assay": "OATPs inhibition study with rifampicin on tacrine cellular accumulation", "format": "in vitro ADME, rat", "details": "data not shown"}, "[1]": {"test_system": "sandwich-cultured primary rat hepatocytes (SCHs)"}, "[2]": {"test_system": "sandwich-cultured primary rat hepatocytes (SCHs)", "details": "5 min, 1 μM"}, "[3]": {"test_system": "sandwich-cultured primary rat hepatocytes (SCHs)", "details": "1 μM"}, "[4]": {"details": "human, in vivo; cited from earlier work"}, "hepatic transaminase": {"test_system": "hepatic transaminase", "details": "human, in vivo; cited from earlier work"}, "P-gp": {"test_system": "P-gp", "details": "5 μM valspodar, 1 μM tacrine, 10 min, SCHs day 4"}},
  "note": "Structures can show the parent of a compound that is named as a salt. Where two headings read alike, the source gives them in different places.",
  "data": [
    {"smiles": "CC[N+](CC)(CC)CC", "note": "[TEA, tetraethylammonium chloride]", "values": [
      {"measurement": "Inhibition of tacrine uptake vs untreated control", "setting": "OCTs; inhibitor 300 μM", "result": "~ 18%"}
    ]},
    {"smiles": "CN/C(=N/CCSCc1nc[nH]c1C)NC#N", "note": "[cimetidine]", "values": [
      {"measurement": "Inhibition of tacrine uptake vs untreated control", "setting": "OCTs; inhibitor 300 μM", "result": "> 50", "unit": "%"}
    ]},
    {"smiles": "COCCCC/C(=N\\OCCN)c1ccc(C(F)(F)F)cc1", "note": "[fluvoxamine, Fluvoxamine maleate]", "values": [
      {"measurement": "Inhibition of tacrine uptake vs untreated control", "setting": "OCTs; inhibitor 50 μM", "result": "> 50", "unit": "%"}
    ]},
    {"smiles": "CO[C@H]1/C=C/O[C@@]2(C)Oc3c(C)c(O)c4c(O)c(c(/C=N/N5CCN(C)CC5)c(O)c4c3C2=O)NC(=O)/C(C)=C\\C=C\\[C@H](C)[C@H](O)[C@@H](C)[C@@H](O)[C@@H](C)[C@H](OC(C)=O)[C@@H]1C", "note": "[rifampicin]", "values": [
      {"measurement": "Effect on tacrine cellular accumulation", "setting": "OATPs", "result": "did not alter tacrine cellular accumulation"}
    ]},
    {"smiles": "Nc1c2c(nc3ccccc13)CCCC2", "note": "[tacrine, 9-amino-1,2,3,4-tetrahydroacridine]", "values": [
      {"measurement": "Time at which uptake reaches a plateau", "setting": "[1]; 1 μM tacrine, SCHs day 1", "result": 10, "unit": "min"},
      {"measurement": "Uptake Vmax", "setting": "[1]; SCHs, day 1, saturable uptake (37°C minus 4°C), tacrine 0.1–500 μM", "result": "908±72", "unit": "pmol/min/mg protein"},
      {"measurement": "Average uptake", "setting": "[2]; pH 6.4", "result": "68±4", "unit": "pmol/min/mg protein"},
      {"measurement": "Decrease in uptake compared to neutral pH (7.4)", "setting": "[2]; pH 6.4", "result": "approximately 3 fold"},
      {"measurement": "Average uptake", "setting": "[2]; pH 7.4", "result": "405±16", "unit": "pmol/min/mg protein"},
      {"measurement": "Average uptake", "setting": "[2]; pH 8.4", "result": "816±62", "unit": "pmol/min/mg protein"},
      {"measurement": "Increase in uptake compared to neutral pH (7.4)", "setting": "[2]; pH 8.6", "result": "~2", "unit": "fold"},
      {"measurement": "Time of maximum biliary excretion", "setting": "[3]", "result": 10, "unit": "min"},
      {"measurement": "BEI%", "setting": "[3]; 10 min", "result": "22.9±1.9", "unit": "%"},
      {"measurement": "Oral bioavailability", "setting": "[4]", "result": "17–24%"},
      {"measurement": "Patients with significantly elevated hepatic transaminase concentrations", "setting": "hepatic transaminase", "result": 25, "unit": "%"}
    ]},
    {"smiles": "C/C=C/C[C@@H](C)C(=O)[C@H]1C(=O)N[C@@H](C(C)C)C(=O)N(C)CC(=O)N(C)[C@@H](CC(C)C)C(=O)N[C@@H](C(C)C)C(=O)N(C)[C@@H](CC(C)C)C(=O)N[C@@H](C)C(=O)N[C@H](C)C(=O)N(C)[C@@H](CC(C)C)C(=O)N(C)[C@@H](CC(C)C)C(=O)N(C)[C@@H](C(C)C)C(=O)N1C", "note": "[valspodar]", "values": [
      {"measurement": "Reduction of tacrine BEI%", "setting": "P-gp", "result": "approximately 60%"}
    ]},
    {"smiles": "COc1ccc(CCN(C)CCCC(C#N)(c2ccc(OC)c(OC)c2)C(C)C)cc1OC", "note": "(stereo not shown) [verapamil, verapamil hydrochloride]", "values": [
      {"measurement": "Inhibition of tacrine uptake vs untreated control", "setting": "OCTs; inhibitor 50 μM", "result": "> 50", "unit": "%"},
      {"measurement": "Concentration giving maximal inhibition of tacrine uptake", "setting": "OCTs; verapamil tested at 10, 50 and 100 μM, concentration-dependent, P<0.001", "result": 100, "unit": "µM"},
      {"measurement": "Reduction in tacrine uptake", "setting": "OCTs; verapamil, concentration not given, SCHs", "result": 3, "unit": "fold"}
    ]}
  ]
}
